IC50 data for ten molecules are collected here from patent US20260184712A1, “Heterocyclic Compounds as ENT Inhibitors and Compounds for Use in the Treatment of Cancers” (iTeos Belgium SA, priority 2022, published 2026).

The target of the assay is T1, human ENT1 (Homo sapiens, UniProt Q99808).
T1 construct: JAR cells expressing ENT1 were purchased from ATCC; host or cells: JAR cells
T1 sequence (Q99808 1-456): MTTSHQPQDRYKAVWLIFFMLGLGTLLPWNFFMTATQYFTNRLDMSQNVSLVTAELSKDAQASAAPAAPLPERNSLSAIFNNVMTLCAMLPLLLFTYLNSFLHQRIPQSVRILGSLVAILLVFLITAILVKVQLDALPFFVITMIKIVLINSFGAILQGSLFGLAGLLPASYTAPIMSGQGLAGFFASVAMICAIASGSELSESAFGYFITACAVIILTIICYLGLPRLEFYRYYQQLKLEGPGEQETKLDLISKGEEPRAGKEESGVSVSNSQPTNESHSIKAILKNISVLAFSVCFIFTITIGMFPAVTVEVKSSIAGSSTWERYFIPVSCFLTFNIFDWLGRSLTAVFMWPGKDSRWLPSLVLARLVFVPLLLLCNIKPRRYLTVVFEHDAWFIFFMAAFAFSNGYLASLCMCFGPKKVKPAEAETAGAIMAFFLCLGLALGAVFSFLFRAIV
Nature of the assay: ENT1 binding assay (competition with Sahenta-DY647 on JAR cells). The settings on record: competition with SAHENTA-DY647 binding; IC50 categorized; read-out: Binding Assay IC50. The gist of the method:
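Whole-cell competition on JAR cells (native ENT1): 50,000 cells pre-incubated 30 min at 4 °C with compound in HBSS/10 mM Hepes/0.1% BSA, then 100 nM Sahenta-DY647 added for 30 min at 4 °C. After washing, fluorescence (Ex 630/Em 670 nm) read; IC50 from sigmoidal fit, averaged as pIC50.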
As for `C[C@H]1O[C@@H](n2c(NC3CCCC3)nc3c(OCc4ccc([N+](=O)[O-])cc4)ncnc32)[C@H](O)[C@@H]1O` [Compound 6], the IC50 – broadly, the concentration that gives 50% inhibition – was less than 0.001 µM.

Regarding `C[C@H]1O[C@@H](n2cnc3c(N4CCc5ccc([N+](=O)[O-])cc5C4)ncnc32)[C@H](O)[C@@H]1O` [Compound 151], the IC50 is 0.001 to 0.02 µM.

Take `C[C@H]1O[C@@H](n2cnc3c(SCc4ccc([N+](=O)[O-])cc4)ncnc32)[C@H](O)[C@@H]1O` [Compound 147]: the IC50 is 0.001 to 0.02 µM.

Regarding `OCCOC[C@H]1O[C@@H](n2cnc3c(OCc4ccc(OC(F)(F)F)cc4)ncnc32)[C@H](O)[C@@H]1O` [Compound 175], the IC50 was in the range of 0.02 to 0.5 µM.

On to `C[C@H]1O[C@@H](n2c(NC3CCOCC3)nc3c(OCc4ccc(C#N)cc4)ncnc32)[C@H](O)[C@@H]1O` [Compound 73], for which the IC50 was less than 0.001 µM.

With `C[C@H]1O[C@@H](n2c(N[C@H]3CCC(F)(F)C3)nc3c(OCc4ccc(C#N)cc4)ncnc32)[C@H](O)[C@@H]1O` [Compound 82], the IC50 was 0.001 to 0.02 µM.

For the molecule `C[C@H]1O[C@@H](n2cnc3c(OCc4ccc(OC(F)F)cc4)ncnc32)[C@H](O)[C@@H]1O` [Compound 173], the IC50 lay within 0.02 to 0.5 µM.

As for `C[C@H]1O[C@@H](n2c(NC3CCOCC3)nc3c(OCc4ccc(OC(F)F)nc4)ncnc32)[C@H](O)[C@@H]1O` [Compound 75], the IC50 was less than 0.001 µM.

Take `C[C@H]1O[C@@H](n2cnc3c(OCc4ccc([N+](=O)[O-])cc4)ncnc32)[C@H](O)[C@@H]1O` [Compound 166]: the IC50 was 0.02 to 0.5 µM.

Turning to `C[C@H]1O[C@@H](n2c(NC3CCC(O)CC3)nc3c(OCc4ccc([N+](=O)[O-])cc4)ncnc32)[C@H](O)[C@@H]1O` (stereo partly shown) [Compound 28], the IC50 was less than 0.001 µM.
